The values that follow come from patent US20220324912A1, “THERAPEUTIC PEPTIDES” (COHBAR, INC., priority 2019, published 2022).

Non-standard residues stand in square brackets, D forms with d. No end group written: not given here.

For assay [1], the system named is Caspase 3/7 in C2C12 cells. Put plainly: Caspase 3/7 Activity in C2C12 Cells. The format is cell-based, mouse. To be noted: peptides 10 μM, 24 hours, relative to 0.1% DMSO control. The procedure:
The effect of the peptides on cell death/survival can be assessed using a caspase-3/7 assay in cultured cells such as mouse myoblast cells. Peptides were initially prepared as 10 mM stock in DMSO, diluted to 1 mM in H2O, and used at a final concentration of 10 μM (0.1% DMSO). […] Staurosporine (Abcam, Cambridge, Mass.) was dissolved at 10 mM in DMSO as a stock solution. Caspase-Glo 3/7 Assay Reagent was purchased from Promega (Madison, Wis.). C2C12 cell line was purchased from American Type Culture Collection (Manassas, Va.). C2C12 cells were grown in DMEM supplemented with 20% FBS with 100 IU/ml penicillin and 100 μg/ml streptomycin. Cultures were maintained at 37° C. in a humidified atmosphere of 5% CO2/95% air. C2C12 cells were seeded at 4,000 cells per well on 96-well plates. The next day cells were incubated with test peptides at 10 μM or staurosporine at concentrations between 100 nM and 5 nM using a final concentration of 0.1% DMSO and maintained at 37° C. in a humidified atmosphere of 5% CO2/95% air for 24 hours. Caspase 3/7 activity was determined using a Caspase-Glo 3/7 Assay kit according to the manufacturer's instructions. Luminescence for each sample well on the plate was measured using a Cytation 3 plate reader (BioTek, Winooski, Vt.). Activity was calculated relative to 0.1% DMSO control.

Another assay has as its system 3T3-L1 mouse adipocytes. Put plainly: Free Fatty Acid Levels in 3T3-L1 Mouse Adipocytes (Example 12, 10 μM). The format is cell-based. Particulars: peptides 10 μM, 20-22 hours then 3 hours with isoproterenol 1 nM, 3T3-L1 mouse adipocytes.
Assay [2] deals with C2C12 cells. In words: ATP Levels in Cultured C2C12 Cells (CellTiter-Glo). It counts as cell-based, mouse. Particulars: peptides 10 μM, 3 days with readdition every 24 hours, relative to 0.1% DMSO control. The procedure: The effect of the peptides on cellular metabolism can be assessed using an assay of ATP levels in cultured cells such as mouse myoblast cells. Peptides were initially prepared as 10 mM stock in DMSO, diluted to 1 mM in H2O, and used at a final concentration of 10 μM (0.1% DMSO). […] Lovastatin was prepared as 10 mM stock in 70% Ethanol and used at final concentration of 10 µM containing 0.1% DMSO. CellTiter-Glo® Assay kit was purchased from Promega (Madison, Wis.). […] C2C12 cells were grown in DMEM medium supplemented with 20% FBS with 100 IU/ml penicillin and 100 μg/ml streptomycin. […] C2C12 cells were seeded at 800 cells per well on 96-well plates. […] ATP levels were determined using a CellTiter-Glo Assay kit according to the manufacturer's instructions. Luminescence for each sample well on the plate was measured using a Cytation 3 plate reader (BioTek, Winooski, Vt.). Activity was calculated relative to 0.1% DMSO treated control. The relative standard deviation of the result for the 0.1% DMSO treated control was <5%. […] ATP levels for treatment with lovastatin (10 μM) were <50% of the 0.1% DMSO treated control value.

Assay [3] concerns C2C12 cells. In words: Cell Proliferation in C2C12 Cells (Cyquant DNA dye). It counts as cell-based, mouse. To be noted: peptides 10 μM, 72 hours with readdition every 24 hours, relative to 0.1% DMSO control.
For assay [4], the system named is C2C12 cells. In words: Cellular ROS Levels Induced by TBHP in C2C12 Cells (DCFDA). It counts as cell-based, mouse. To be noted: peptides 10 μM, 18-20 hours, then TBHP 100 μM 1 hour, relative to TBHP control.
The next assay relates to DIO mice. Put plainly: Metabolic parameters in DIO mice, twice daily intraperitoneal, 10 days (Example 16). It counts as in vivo, mouse. Particulars: 5 mg/kg, male DIO mice. The procedure: Male C57BL/6 mice were maintained on a high fat diet for 18 weeks to develop diet induced obesity. Animals were randomized to treatment groups based on blood glucose levels and body weight. The peptides of the invention were administered to groups of male DIO mice twice daily by intraperitoneal injection at a dose of 5 mg/kg/dose for 10 days (N=8 animals per treatment group). An additional group of male DIO mice (n=8) received vehicle (water) alone administered twice daily by intraperitoneal injection. Body weight, blood glucose levels and food intake were monitored. Body mass distribution (fat vs lean) was determined by quantitative whole body NMR prior to dosing and at the end of dosing.

Consider “11 (RLPGSAILTNPVL[dA]WVWV) [compound 11]”, for which, in assay [1], the “Caspase 3/7 activity, Percent of Control Activity” value is reported as 98.7%. Also, in the assay with 3T3-L1 mouse adipocytes, the “Free fatty acid levels, Percent of Isoproterenol Control Activity” value is listed as 47.2%. Moreover, in the assay with C2C12 cells [2], the “ATP levels, Percent of Control Activity” value worked out at 100.7%. Also, the “Cell proliferation, Percent of Control” value with C2C12 cells [3] is 98.1%. Moreover, in the assay with C2C12 cells [4], the “Cellular ROS levels induced by TBHP, Percent of Control” value amounted to 103.5%. In the assay with DIO mice, the “Difference from Vehicle Control: Decrease from Baseline in Blood Glucose” value was found to be 4.76 mg/dL, the “Difference from Vehicle Control: Decrease from Baseline in Body Weight” value is on record as −1.81% and the “Difference from Vehicle Control: Decrease from Baseline in Fat Mass” value was -1.09 g.
Regarding 18 (S[dA]ILTNPVLGWVWV) [compound 18], the “Caspase 3/7 activity, Percent of Control Activity” value in assay [1] turned out to be 97.0%. The “Free fatty acid levels, Percent of Isoproterenol Control Activity” value with 3T3-L1 mouse adipocytes was 95.9%. For the same substance, the “ATP levels, Percent of Control Activity” value in the assay with C2C12 cells [2] is reported as 103.2%. Further, the “Cell proliferation, Percent of Control” value in the assay with C2C12 cells [3] is reported as 101.7%. Moreover, the “Cellular ROS levels induced by TBHP, Percent of Control” value in the assay on C2C12 cells [4] is reported as 100.7%.
